# Laboratory results as given in publication PMC6268492, “Synthesis and Antiangiogenic Activity of Novel Gambogic Acid Derivatives” (Molecules, 2012).
# Where two headings read alike, the source gives them in different places.
# Key:
# [1] = system: transgenic fli-1: enhanced GFP zebrafish embryos; experiment: Zebrafish embryo assay: antiangiogenic effects; format: in vivo, zebrafish (Danio rerio); settings: Danio rerio, zebrafish embryos
# HUVECs [2] = experiment: Matrigel tube formation assay; format: cell-based, Human
# Method: In the later stages of angiogenesis, tube formation of ECs is also an important process. Thus, a Matrigel tube formation assay was applied to assess the ability of HUVECs to form ECs vascular structures which is believed to be significant in new vessel formation.
# Figure 4 Effects on the HUVECs tube formation. (I) HUVECs (1 × 10^4 cells) suspended in DMEM containing each compound (0.5 or 1 or 2 μM) were added to the Matrigel. Control was treated with DMEM alone. After incubation for 6 h at 37 °C, capillary networks were photographed and quantified (Olympus CKX41, magnification: 100×); (II) Rates of the HUVECs tube formation. The number of intact tubes was counted in five randomly chosen regions and expressed as the percentage of the control. The results were expressed as mean ±SD. ** p < 0.01; *** p < 0.005 compared with control.
# Matrigel was dissolved at 4 °C overnight. Each well of prechilled 96-well plates was coated with 50 μL of Matrigel, incubated and solidified at 37 °C for 45 min. After removing the unsolidified fluid, HUVECs at the density of 1 × 10^4 were cultured in DMEM containing the indicated concentrations of compounds for 6 h. Controls were treated with the DMEM alone. Images were digitally captured and quantitatively analyzed (Olympus). The numbers and line lengths of the circular tubules formed by the cells were calculated manually. The values were observed from five randomly selected fields.
# HUVECs [3] = experiment: Wound-healing migration assay; format: cell-based, Human; settings: 1 μM, 24 h, control = 100%
# Text: The migration of ECs is an important step of angiogenesis. The continuity of vascular ECs is the most important factor in preserving vessel wall function. Migration of ECs is essential to the recovery of this continuity after vascular ECs injury. […] As illustrated in Figure 3(I), the HUVECs migrated into the wound area actively (between the two white dash lines) under the compound-free condition (control).
# Figure 3 Effects on the HUVECs migration. (I) HUVECs suspended in serum-free Dulbecco’s Modified Eagle Medium (DMEM) containing compounds (0.25 or 0.5 or 1 μM) for 24 h were photographed under a phase contrast microscopy (Olympus CKX41, magnification: 50×). Control was treated with serum-free DMEM which was consided as resulting in 100%; (II) Migration rates of compounds on the HUVECs. Data represented the mean standard deviation (SD) from three independent experiments. *** p < 0.005compared with control.
# HUVECs were seeded in 6-well plates precoated with 0.1% gelatin, and grown overnight to confluence. The monolayer cells were wounded by scratching with 10 μL pipet tips and washed twice with serum-free DMEM (Dulbecco’s modified eagle medium) to remove the nonadherent cells and then replaced by serum-free DMEM with the indicated concentrations of compounds for 24 h. Images were taken at 0 h and 24 h independently after incubation at 37 °C, 5% CO2 environment. The migrated HUVECs were manually counted. The values were observed from four randomly selected fields.
# A549 = experiment: MTT assay, cell proliferation; format: cell-based; settings: Homo sapiens, 24 h, read-out: IC50, inhibition of cell proliferation
# Summary of the method: (§1)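 Absorbance at 570 nm of DMSO-dissolved formazan was expressed as percentage growth relative to untreated cells, and IC50 was taken as the concentration giving 50% inhibition. Seeding was 5 × 10^3 cells per well, with 24 h compound treatment followed by 3 h MTT.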
# HepG2 = experiment: MTT assay, cell proliferation; format: cell-based; settings: Homo sapiens, 24 h, read-out: IC50, inhibition of cell proliferation
# Summary of the method: (§2)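 Viability after a 24 h compound exposure (5 × 10^3 cells/well, 37 °C) was measured by MTT reduction over 3 h with a 570 nm read-out. IC50 values are concentrations that halve proliferation relative to untreated control.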
# HCT116 = experiment: MTT assay, cell proliferation; format: cell-based; settings: Homo sapiens, HCT-116, 24 h, read-out: IC50, inhibition of cell proliferation
# Summary of the method: as §1
# HeLa = experiment: MTT assay, cell proliferation; format: cell-based; settings: Homo sapiens, 24 h, read-out: IC50, inhibition of cell proliferation
# Summary of the method: as §2
# K562 = experiment: MTT assay, cell proliferation; format: cell-based; settings: Homo sapiens, 24 h, read-out: IC50, inhibition of cell proliferation
# Summary of the method: as §2
compound,measurement,setting,value
"CC(=O)Nc1ccc(NC(=O)/C(C)=C\CC23OC(C)(C)C4CC(C=C5C(=O)c6c(O)c7c(c(CC8OC8(C)C)c6OC542)OC(C)(CCC2OC2(C)C)C=C7)C3=O)cc1 (centres unmarked) [Compound 36, (32,33),(37,38)-Diepoxy-N-(4-acetamidophenyl) gambogamide]",inhibition in vivo at 1 µM,[1]; read-out: antiangiogenic rates,25 to 50%
same,inhibition in vivo at 1 µM,"[1]; vs vehicle (0.05% DMSO), read-out: Anti-angiogenic phenotype",25 to 50%
same,inhibition in vivo at 2.5 µM,"[1]; 2.5 μM, vs vehicle (0.05% DMSO), read-out: Anti-angiogenic phenotype",50 to 75%
same,inhibition in vivo at 10 µM,"[1]; 10 μM, vs vehicle (0.05% DMSO), read-out: Anti-angiogenic phenotype",> 75%
same,improvement in the inhibition of tube formation compared with GA,HUVECs [2]; 0.5 μM,2 fold
same,inhibition at 0.5 µM,"HUVECs [2]; Homo sapiens, HUVEC, 0.5 μM, 6 h, vs control, read-out: inhibitory rates of tube formation",56.5%
same,inhibition at 2 µM,"HUVECs [2]; Homo sapiens, HUVEC, 2 μM, read-out: tube formation inhibitory rate",100%
same,inhibition of tubular structures,HUVECs [2]; concentrations exceeding 1 μM,completely inhibit tubular structures
same,migratory rates,HUVECs [3],1.7%
same,IC50,A549,1290 ± 140 nM
same,IC50,HepG2,1850 ± 80 nM
same,IC50,HCT116,560 ± 10 nM
same,IC50,HeLa,4960 ± 880 nM
same,IC50,K562,280 ± 30 nM
